Experimental findings from patent US4894392A, “Aminoalkyl naphthalenediols as host resistance enhancers” (priority 1988, dated 1990) are described below.

Where a name gives a salt, the structure may show the parent alone.

One assay concerns Pseudomonas aeruginosa. As to the kind of experiment: In vivo immunopotentiation against challenge with lethal doses of Pseudomonas aeruginosa (cyclophosphamide-immunocompromised mouse model). Further details: species or system random outbred albino CF1 female mice. The following applies: CY 250 mg/kg i.p. 4 days before P. aeruginosa challenge; test compound injected once, 2 hours after CY. On the procedure:
An immunocompromised mouse model, established by intraperitoneal treatment of random outbred albino CF1 female mice (ca. 25 g) with 250 mg/kg body weight of cyclophosphamide (CY) 4 days prior to bacterial challenge with Pseudomonas aeruginosa, was used as the assay system. In this model, test compounds were injected only once (2 hours) after CY treatment. After bacterial challenge, LD50 's (50% lethal doses) were determined. Increased LD50 's in treated mice over controls indicated a return to normality. The LD50 for untreated or vehicle-treated mice was routinely 10^6 -10^7 colony forming units (CFU) of P. aeruginosa organisms. After CY treatment, the LD50 was reduced to 10^1 to 10^2 CFU's. The protection afforded by test compound (Protective Index) was determined by calculating the number of LD50 's of protection of treated animals over the LD50 of CY controls.
For the compound `CC(C)(C)C1CCC(NCc2ccc3c(CNC4CCC(C(C)(C)C)CC4)c(O)ccc3c2O)CC1` (mixture of isomers) [Example 3, 1,6-Dihydroxy-2,5-bis-(4-tert-butylcyclohexylaminomethyl)-naphthalene dihydrochloride (mixture of isomers)], the “Relative No. LD50's (Protective Index: number of LD50's of protection of treated animals over the LD50 of CY controls)” value amounted to 2128.
As for `CC1CCCCC1NCc1ccc2c(CNC3CCCCC3C)c(O)ccc2c1O` (mixture of isomers) [Example 5, 1,6-Dihydroxy-2,5-bis-(2-methylcyclohexylaminomethyl)-naphthalene dihydrochloride (mixture of isomers)], the “Relative No. LD50's (Protective Index: number of LD50's of protection of treated animals over the LD50 of CY controls)” value is on record as 133.
On to `CC1CCCC(NCc2ccc3c(CNC4CCCC(C)C4)c(O)ccc3c2O)C1` (mixture of isomers) [Example 6, 1,6-Dihydroxy-2,5-bis-(3-methylcyclohexylaminomethyl)-naphthalene dihydrochloride (mixture of isomers)], for which the “Relative No. LD50's (Protective Index: number of LD50's of protection of treated animals over the LD50 of CY controls)” value is given as 151.
`CC(C)(C)C1CCC(NCc2ccc3c(CNC4CCC(C(C)(C)C)CC4)c(O)ccc3c2O)CC1.Cl.Cl` (single isomer, unassigned) [Example 4, 1,6-Dihydroxy-2,5-bis-(4-tert-butylcyclohexylaminomethyl)-naphthalene dihydrochloride (single isomer)]: the “Relative No. LD50's (Protective Index: number of LD50's of protection of treated animals over the LD50 of CY controls)” value is on record as 1000.
On the same count and under the same terms, under `Cl.Cl.Oc1ccc2c(O)c(CNCC3CCCCC3)ccc2c1CNCC1CCCCC1` [Example 2, 1,6-Dihydroxy-2,5-bis-(cyclohexylmethylaminomethyl)-naphthalene dihydrochloride] stands 320; under `C[C@H]1CC[C@H](NCc2ccc3c(CN[C@H]4CC[C@H](C)CC4)c(O)ccc3c2O)CC1.Cl.Cl` [Example 7, 1,6-Dihydroxy-2,5-bis-(trans-4-methylcyclohexylaminomethyl)-naphthalene dihydrochloride], 1000.

The assay is the same for the next values; noted with them: cyclophosphamide-immune compromised mouse, P. aeruginosa lethal challenge.
As for `CC(C)(C)C1CCC(NCc2ccc3c(CNC4CCC(C(C)(C)C)CC4)c(O)ccc3c2O)CC1.Cl.Cl` (single isomer, unassigned) [Example 4, 1,6-Dihydroxy-2,5-bis-(4-tert-butylcyclohexylaminomethyl)-naphthalene dihydrochloride (single isomer)], the “LD50 raised over untreated controls” value is reported as 1000 fold.
